Laboratory results: ChEMBL document CHEMBL4627368, “Acylhydrazones as isoniazid derivatives with multi-target profiles for the treatment of Alzheimer's disease: Radical scavenging, myeloperoxidase/acetylcholinesterase inhibition and biometal chelation” (Bioorg Med Chem, 2020)
Calls of active or inactive are those of the source. The calls are words filed in the database; no cut-off is given here.

How the values were obtained:
[1] = Antioxidant activity assessed as DPPH radical scavenging activity at 100 uM after 30 mins (reference value: 1.9 +/- 1.2%); format: functional
[2] = Antioxidant activity assessed as DPPH radical scavenging activity after 30 mins; format: functional
[3] = organism: Rattus norvegicus; assay: Inhibition of rat bone marrow myeloperoxidase using H2O2 as substrate at 10 uM after 20 mins by TMB based method (reference value: - 1.4 +/- 12.7%)
[4] = Inhibition of rat bone marrow myeloperoxidase using H2O2 as substrate after 20 mins by TMB based method
[5] = molecular target: Acetylcholinesterase (Electrophorus electricus) (UniProt O42275); assay: Inhibition of Electrophorus electricus AChE at 100 uM using acetylthiocholine iodide as substrate preincubated for 30 mins followed by substrate addition and measured after 10 mins by Ellman's method
Chain of Acetylcholinesterase (Electrophorus electricus) (O42275 24-633 limits assumed): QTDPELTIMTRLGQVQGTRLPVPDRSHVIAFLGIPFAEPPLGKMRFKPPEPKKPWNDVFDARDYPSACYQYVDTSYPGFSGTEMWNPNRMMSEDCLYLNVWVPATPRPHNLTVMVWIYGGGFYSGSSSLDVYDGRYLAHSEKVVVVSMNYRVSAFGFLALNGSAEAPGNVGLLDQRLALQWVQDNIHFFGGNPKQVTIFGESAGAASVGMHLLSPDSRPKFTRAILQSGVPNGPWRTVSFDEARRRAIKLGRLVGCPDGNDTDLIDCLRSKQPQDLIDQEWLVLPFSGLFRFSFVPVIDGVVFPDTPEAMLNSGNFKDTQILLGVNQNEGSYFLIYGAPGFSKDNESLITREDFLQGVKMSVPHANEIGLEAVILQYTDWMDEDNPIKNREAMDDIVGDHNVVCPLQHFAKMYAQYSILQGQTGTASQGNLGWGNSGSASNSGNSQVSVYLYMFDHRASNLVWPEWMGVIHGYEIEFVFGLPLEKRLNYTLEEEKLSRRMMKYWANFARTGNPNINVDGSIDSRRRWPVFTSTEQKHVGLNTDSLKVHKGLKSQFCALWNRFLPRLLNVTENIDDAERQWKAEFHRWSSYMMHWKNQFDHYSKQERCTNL

[6] = Metal chelating activity assessed as compound-Ca2+ complex formation at 20 uM in presence of CaCl2 after 2 hrs by UV-visible spectrophotometric analysis
[7] = Metal chelating activity assessed as compound-Cu2+ complex formation at 20 uM in presence of Cucl2 after 2 hrs by UV-visible spectrophotometric analysis
[8] = Metal chelating activity assessed as compound-Mg2+ complex formation at 20 uM in presence of MgCl2 after 2 hrs by UV-visible spectrophotometric analysis
[9] = Metal chelating activity assessed as compound-Zn2+ complex formation at 20 uM in presence of ZnCl2 after 2 hrs by UV-visible spectrophotometric analysis
[10] = Metal chelating activity assessed as compound-Fe2+ complex formation at 20 uM in presence of FeCl2 after 2 hrs by UV-visible spectrophotometric analysis
[11] = Metal chelating activity assessed as compound-Fe2+ complex stoichiometry ratio of 2:1 at 20 uM in presence of FeCl2 after 2 hrs by Job's plot analysis
[12] = Metal chelating activity assessed as compound-Zn2+ complex stoichiometry ratio of 2:1 at 20 uM in presence of ZnCl2 after 2 hrs by Job's plot analysis
[13] = molecular target: Acetylcholinesterase (Electrophorus electricus) (UniProt O42275); assay: Non-competitive mixed inhibition of Electrophorus electricus AChE using acetylthiocholine iodide as substrate preincubated for 30 mins followed by substrate addition and measured after 10 mins by Lineweaver-Burk plot analysis

| Compound | Activity [1] [%] | inhibition [3] [%] | IC50 [4] [µM] | inhibition [5] [%] | also measured |
| --- | --- | --- | --- | --- | --- |
| O=C(N/N=C/c1cc(O)ccc1O)c1ccncc1 | 92.4 | 100 | 4.8 | 0.3 | IC50 [2]: 18.3 µM |
| NNC(=O)c1ccncc1 [ISONIAZID] | 91.3 | 99 | 3.9 | 5.8 | IC50 [2]: 22.9 µM |
| O=C(N/N=C/c1ccc(Cl)c(Cl)c1)c1ccncc1 | 3.9 | -2.4 | – | 14 | – |
| COc1cc(/C=N/NC(=O)c2ccncc2)ccc1O [FTIVAZIDE] | 76.7 | 17.3 | – | 23.1 | IC50 [2]: 33.6 µM |
| CCN(C)C(=O)Oc1cccc([C@H](C)N(C)C)c1 | 0.2 | 17.1 | – | 59.6 | – |
| O=C(N/N=C/c1ccccc1)c1ccncc1 | 3.3 | 5.1 | – | 16.5 | – |
| O=C(N/N=C/c1ccccc1O)c1ccncc1 | 5.3 | 45.3 | – | 3 | – |
| COc1ccc(/C=N/NC(=O)c2ccncc2)cc1 | 2.4 | 6 | – | 8 | – |
| O=C(N/N=C/c1coc2ccccc2c1=O)c1ccncc1 | 82.2 | 80.1 | 5.3 | 54.2 | IC50 [2]: 42.4 µM; Activity [6]: inactive; Activity [7]: Active; Activity [8]: inactive; Activity [9]: Active; Activity [10]: Active; Activity [11]: Active; Activity [12]: Active; inhibition [13]: Active |
| O=C(N/N=C/c1c[nH]c2ccccc12)c1ccncc1 | 28.8 | 82.2 | 1.5 | 5.5 | – |
| O=C(N/N=C/c1cc(Br)ccc1O)c1ccncc1 | 3.9 | 90 | 4.3 | 6.8 | – |
| O=C(N/N=C/c1ccccn1)c1ccncc1 | -0.6 | 0.3 | – | 24.5 | – |
| O=C(N/N=C/c1ccc(F)cc1)c1ccncc1 | 8.1 | 4.6 | – | 16.3 | – |
| O=C(N/N=C/c1ccc(O)cc1)c1ccncc1 | 28.7 | – | – | 10 | – |
| O=C(N/N=C/c1ccc([N+](=O)[O-])cc1)c1ccncc1 | 2.5 | 32 | – | 12.7 | – |
| O=c1c(O)c(-c2ccc(O)c(O)c2)oc2cc(O)cc(O)c12 [QUERCETIN] | 96.3 | 96.3 | – | – | IC50 [2]: 15.3 µM |
| CN(C)c1ccc(/C=N/NC(=O)c2ccncc2)cc1 [N'-(4-DIMETHYLAMINOBENZYLIDENE)ISONICOTINOHYDRAZIDE] | 6.3 | 96.1 | 1.4 | 6.9 | – |
| O=C(N/N=C/c1cccc([N+](=O)[O-])c1)c1ccncc1 | 2 | -10 | – | 36.2 | – |
